We go through 15 compounds from ChEMBL document CHEMBL1142838, “Design and synthesis of phthalimide-type histone deacetylase inhibitors” (Bioorg Med Chem Lett, 2005).

In one assay the target is Histone deacetylase. Nature of the assay: Effective concentration for inhibition of histone deacetylase. The assay is classed as protein assay, Homo sapiens.
In another assay the target is Histone deacetylase 1 (Homo sapiens, UniProt Q13547).
Assay [1] concerns the target T1, Protein deacetylase HDAC6 (Homo sapiens, UniProt Q9UBN7).
T1 sequence (Q9UBN7 whole entry): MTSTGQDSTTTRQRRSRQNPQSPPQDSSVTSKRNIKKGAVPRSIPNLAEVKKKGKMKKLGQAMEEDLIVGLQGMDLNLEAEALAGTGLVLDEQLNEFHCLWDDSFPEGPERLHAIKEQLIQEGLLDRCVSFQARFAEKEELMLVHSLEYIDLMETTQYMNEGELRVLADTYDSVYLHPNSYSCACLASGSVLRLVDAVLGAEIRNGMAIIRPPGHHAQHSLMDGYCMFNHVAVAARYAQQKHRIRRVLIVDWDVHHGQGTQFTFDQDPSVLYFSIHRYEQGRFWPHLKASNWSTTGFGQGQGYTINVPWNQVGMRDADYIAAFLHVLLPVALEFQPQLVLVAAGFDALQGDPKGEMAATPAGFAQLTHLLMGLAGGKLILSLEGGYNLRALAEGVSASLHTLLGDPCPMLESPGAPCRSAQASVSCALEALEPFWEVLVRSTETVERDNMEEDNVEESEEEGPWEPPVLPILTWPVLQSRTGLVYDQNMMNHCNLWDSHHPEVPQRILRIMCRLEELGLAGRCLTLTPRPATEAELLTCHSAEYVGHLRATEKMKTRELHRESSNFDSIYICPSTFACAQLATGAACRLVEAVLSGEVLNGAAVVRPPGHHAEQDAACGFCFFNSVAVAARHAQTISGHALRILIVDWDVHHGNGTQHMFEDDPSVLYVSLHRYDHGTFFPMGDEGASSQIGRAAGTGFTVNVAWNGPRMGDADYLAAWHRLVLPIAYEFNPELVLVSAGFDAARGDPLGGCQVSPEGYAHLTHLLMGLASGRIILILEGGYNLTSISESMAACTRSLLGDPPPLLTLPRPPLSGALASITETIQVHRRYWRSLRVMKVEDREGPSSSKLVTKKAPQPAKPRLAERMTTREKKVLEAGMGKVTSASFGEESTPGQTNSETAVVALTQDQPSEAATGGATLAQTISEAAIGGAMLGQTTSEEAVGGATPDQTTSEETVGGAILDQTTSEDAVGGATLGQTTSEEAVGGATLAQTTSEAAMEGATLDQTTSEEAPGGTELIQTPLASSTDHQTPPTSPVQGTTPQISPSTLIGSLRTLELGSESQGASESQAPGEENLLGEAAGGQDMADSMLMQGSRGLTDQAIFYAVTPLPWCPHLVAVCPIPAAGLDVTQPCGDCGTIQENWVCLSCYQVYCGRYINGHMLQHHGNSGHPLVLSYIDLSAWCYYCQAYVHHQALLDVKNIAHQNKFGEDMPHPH

In a further assay the target is Histone deacetylase 4 (Homo sapiens, UniProt P56524).

The structures appear in SMILES notation.

Chain of Histone deacetylase 4 (P56524 whole entry): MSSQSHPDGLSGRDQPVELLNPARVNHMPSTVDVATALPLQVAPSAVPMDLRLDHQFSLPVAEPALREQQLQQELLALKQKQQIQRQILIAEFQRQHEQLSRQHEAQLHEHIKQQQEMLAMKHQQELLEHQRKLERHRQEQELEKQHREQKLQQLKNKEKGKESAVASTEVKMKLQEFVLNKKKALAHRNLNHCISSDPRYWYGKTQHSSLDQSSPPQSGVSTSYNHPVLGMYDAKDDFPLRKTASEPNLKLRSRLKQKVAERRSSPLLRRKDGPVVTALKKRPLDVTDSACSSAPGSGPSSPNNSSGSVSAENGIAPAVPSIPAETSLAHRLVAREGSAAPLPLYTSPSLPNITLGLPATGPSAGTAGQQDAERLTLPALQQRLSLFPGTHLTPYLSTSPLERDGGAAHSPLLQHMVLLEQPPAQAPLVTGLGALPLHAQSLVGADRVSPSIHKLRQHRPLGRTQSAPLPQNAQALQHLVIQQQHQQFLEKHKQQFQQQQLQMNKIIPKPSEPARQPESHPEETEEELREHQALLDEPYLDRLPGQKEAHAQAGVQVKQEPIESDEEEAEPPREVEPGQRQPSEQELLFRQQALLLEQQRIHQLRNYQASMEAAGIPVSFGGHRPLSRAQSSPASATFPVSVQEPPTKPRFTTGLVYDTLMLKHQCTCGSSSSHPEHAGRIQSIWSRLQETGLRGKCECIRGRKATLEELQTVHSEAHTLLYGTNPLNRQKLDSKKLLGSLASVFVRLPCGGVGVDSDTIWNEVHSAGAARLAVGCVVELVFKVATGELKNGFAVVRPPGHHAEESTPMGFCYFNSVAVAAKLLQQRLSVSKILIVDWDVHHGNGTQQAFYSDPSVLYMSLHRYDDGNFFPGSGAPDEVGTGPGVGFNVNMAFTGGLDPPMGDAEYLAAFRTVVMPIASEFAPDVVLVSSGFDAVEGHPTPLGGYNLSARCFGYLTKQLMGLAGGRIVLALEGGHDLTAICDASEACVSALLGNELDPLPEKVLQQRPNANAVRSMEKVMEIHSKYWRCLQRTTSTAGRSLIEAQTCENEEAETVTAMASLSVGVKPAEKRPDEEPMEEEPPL
Chain of Histone deacetylase 1 (Q13547 whole entry): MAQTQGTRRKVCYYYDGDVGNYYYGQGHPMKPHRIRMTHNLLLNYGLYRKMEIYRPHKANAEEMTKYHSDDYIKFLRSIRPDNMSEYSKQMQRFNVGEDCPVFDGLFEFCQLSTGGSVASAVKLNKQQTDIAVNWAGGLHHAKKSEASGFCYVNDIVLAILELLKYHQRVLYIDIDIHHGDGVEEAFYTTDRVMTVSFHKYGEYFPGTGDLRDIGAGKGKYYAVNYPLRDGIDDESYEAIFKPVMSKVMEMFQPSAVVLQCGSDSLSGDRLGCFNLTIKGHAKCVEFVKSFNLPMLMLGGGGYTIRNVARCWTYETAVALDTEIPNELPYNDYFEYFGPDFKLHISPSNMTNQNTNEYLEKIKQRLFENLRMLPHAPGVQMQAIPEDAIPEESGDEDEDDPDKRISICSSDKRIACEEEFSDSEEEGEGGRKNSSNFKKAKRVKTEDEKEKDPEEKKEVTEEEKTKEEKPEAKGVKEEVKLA

For the compound `O=C(CCc1ccc2c(c1)C(=O)N(Cc1ccccc1)C2=O)NO`, at Histone deacetylase, the EC50 is 407 nM.

Regarding `Cc1ccc(CN2C(=O)c3ccc(/C=C/C(=O)NO)cc3C2=O)cc1`, the EC50 on Histone deacetylase turned out to be 474 nM.

`O=C(NO)c1ccc2c(c1)C(=O)N(c1ccccc1)C2=O`: the EC50 at Histone deacetylase is 125000 nM.

As to `O=C(/C=C/c1ccc2c(c1)C(=O)N([C@@H](COC(=O)c1ccccc1)c1ccccc1)C2=O)NO`, the EC50 at Histone deacetylase is reported as 3790 nM.

On Histone deacetylase, `O=C(NO)c1ccc2c(c1)C(=O)N(Cc1ccccc1)C2=O` displayed an EC50 of 4160 nM.

The compound `COc1ccc(CN2C(=O)c3ccc(/C=C/C(=O)NO)cc3C2=O)cc1` had an EC50 on Histone deacetylase of 186 nM.

`O=C(/C=C/c1ccc2c(c1)C(=O)N(C(c1ccccc1)c1ccccc1)C2=O)NO` showed a half-maximal effective concentration (EC50) on Histone deacetylase of 2090 nM.

The compound `C[C@@H](c1ccccc1)N1C(=O)c2ccc(/C=C/C(=O)NO)cc2C1=O` gave an EC50 at Histone deacetylase of 250 nM.

`O=C(/C=C/c1ccc2c(c1)C(=O)N(c1ccccc1)C2=O)NO` gave an EC50 at Histone deacetylase of 2080 nM.

With `O=C(/C=C/c1ccc2c(c1)C(=O)N(Cc1ccccc1)C2=O)NO`, the results for the 50% inhibitory concentration (IC50) (against Histone deacetylase 1; in assay [1]; at Histone deacetylase 4) were 572 nM, 709 nM and 358 nM, respectively. Also, on Histone deacetylase, the EC50 was 148 nM.

Compound `C[C@H](c1ccccc1)N1C(=O)c2ccc(/C=C/C(=O)NO)cc2C1=O` gave an EC50 on Histone deacetylase of 291 nM.

In turn, `O=C(/C=C/c1ccc2c(c1)C(=O)N(CCc1ccccc1)C2=O)NO` yielded an EC50 at Histone deacetylase of 177 nM.

`O=C(/C=C/c1ccc2c(c1)C(=O)N(CC(c1ccccc1)c1ccccc1)C2=O)NO`: on Histone deacetylase, the EC50 worked out at 7890 nM.

At Histone deacetylase, `O=C(NO)c1ccc2c(c1)C(=O)N(CCc1ccccc1)C2=O` yielded an EC50 of 6630 nM.

With `O=C(/C=C/c1ccc2c(c1)C(=O)N([C@H](COC(=O)c1ccccc1)c1ccccc1)C2=O)NO`, the EC50 at Histone deacetylase worked out at 763 nM.

As a reminder, the EC50 is the concentration that produces a half-maximal response. The term IC50 denotes the midpoint of a concentration-inhibition curve. A low value points to greater potency in that assay.
